These results are taken from PMC6127322, “Novel Imidazole and Methoxybenzylamine Growth Inhibitors Affecting Salmonella Cell Envelope Integrity and its Persistence in Chickens” (Scientific Reports, 2018).

The subject of experiment [1] is S. Typhimurium LT2 wild-type (WT) strain. Put plainly: Dose-response assay (MIC and MBC determination) in M9 broth. The experiment is classed as cell-based, Salmonella enterica subsp. enterica serovar Typhimurium. The note with it: 12 hrs at 37 °C, read-out: MBC (minimal bactericidal concentration). How it is done: Typhimurium using high-throughput screening assay in a 96-well plate format. […] Plates were incubated in a Sunrise Tecan kinetic microplate reader for 12 hrs at 37 °C and the optical density (OD) was measured at 600 nm. The percentage of growth inhibition was calculated as: […]. Cultures from wells showing no turbidimetric increase were transferred onto a XLT4 agar plate. Plates were incubated at 37 °C for 36 hrs. […] S. Typhimurium was challenged with a determined concentration of SM as described in the primary screen.

Experiment [2] deals with Salmonella enterica subsp. enterica serotype Typhimurium. Put plainly: Checkerboard assay, SM and antibiotic combinations. Type of experiment: cell-based. The note with it: for MBC: Salmonella enterica, TYPHIMURIUM, antibiotic alone, M9 medium, read-out: AB MBCalone. How it is done:
The potentiation effect of several antibiotics, commonly used to control Salmonella, was studied in a checkerboard assay. […] The MBC of each antibiotic was determined in M9 medium prior the experiment using a dose-response assay, as described above. For potentiation studies, 100 μl of a S. […] The MBC of each antibiotic was determined as described in the dose-response assay. Bacteria challenged with SMs or antibiotics alone at the same concentrations were used to determine the antibiotic-SM combination effects. […] Further, the bacterial suspension was plated on an agar medium and incubated at 37 °C for 36 hrs. The antibiotic-SM combination effect was calculated based on the determination of the fractional bactericidal concentration (FBC) as previously described[66],[67].

Experiment [3] deals with Kan^R S. Typhimurium in G. mellonella larvae. Put plainly: Efficacy in Salmonella-infected G. mellonella larvae. The experiment is classed as in vivo, Galleria mellonella. The note with it: for Survival of infected larvae: three days. The protocol:
Wax moths were selected as mentioned above. For this study, Kan^R S. Typhimurium was used for challenge. First, the virulence of Kan^R S. Typhimurium was assessed in comparison to WT parent S. Typhimurium strain in G. mellonella. Briefly, larvae (n = 20) were infected in one pro-leg with approximately 8.5 × 10^3 S. Typhimurium suspended in 10 mM MgSO4 (8,5 µl of inoculum) and incubated for three days in the dark at 37 °C in a petri dish. Survival was monitored every 12 hrs for three days. Bacterial quantification was performed once the larvae had died (dark pigmentation or no reaction to a mechanical stimulus) or after 72 hrs of incubation. Larvae were washed once with 70% ethanol, twice with sterile distilled water for 30 sec each, and transferred individually into an Eppendorf® tubes containing 1 ml of 1X PBS and homogenized. The mixture was serially diluted, plated on XLT-4 agar plate supplemented with 50 µg/ml kanamycin, and incubated for 36 hrs at 37 °C. Larvae not treated and larvae treated with the buffer mix were included as controls. The virulence of Kan^R and WT S. Typhimurium strains was assessed by comparing the larval mortality and bacterial counts.
To test the effect of SMs on S. Typhimurium in larvae, SMs and Kan^R S. Typhimurium were injected into two different pro-legs and at different time points as previously described. First, the larvae were treated with SMs, then incubated for 2 hrs at 37 °C in a petri dish, and infected with approximately 8.5 × 10^3 of Kan^R S. Typhimurium per larva. Summary of treatments are described in Supplementary Table S3. Larvae treated with 50 mg/kg chloramphenicol were used as control (lowest concentration of antibiotic allowing 100% larva survival rate; see Supplementary Fig. S3F).
34 Supplemental Table 3. SM treatment groups: wax moth study
Groups Treatment S. Typhimurium*
Negative control 30% DMSO Yes
36 At the given concentration, SMs were soluble at 30% DMSO and higher. Asterisk:
37 larvae were infected with approximately 3.5 X 104 S. Typhimurium bacteria per […]

Another experiment has as its system Salmonella Enteritidis. The experiment in a line: Dose-response assay (MBC) on Salmonella serovars. The following applies: Salmonella enterica; serovar Enteritidis, M9 broth. Type of experiment: cell-based.
A further experiment deals with Salmonella Heidelberg. The experiment in a line: Dose-response assay (MBC) on Salmonella serovars. Type of experiment: cell-based. The following applies: Salmonella enterica; serovar Heidelberg, M9 broth.
For a further experiment, the system named is Salmonella Javiana. Put plainly: Dose-response assay (MBC) on Salmonella serovars. The experiment is classed as cell-based, Salmonella enterica.
For the next experiment, the system named is Salmonella Newport. Put plainly: Dose-response assay (MBC) on Salmonella serovars. The experiment is classed as cell-based. The following applies: Salmonella enterica; serovar Newport, M9 broth.
The next experiment has as its system Salmonella Saint-Paul. Put plainly: Dose-response assay (MBC) on Salmonella serovars. Type of experiment: cell-based, Salmonella enterica. The note with it: serovar Saint-Paul, M9 broth.
The subject of experiment [4] is nine Salmonella serotypes. The experiment in a line: Activity spectrum and dose-response across Salmonella serotypes. The experiment is classed as cell-based, Salmonella enterica. How it is done:
The 128 SMs inhibiting S. Typhimurium growth (20% or higher) were tested for their antimicrobial effect on nine different Salmonella serovars frequently implicated in foodborne gastroenteritis outbreaks. […] Both screens were performed at 200 µM as described in the primary screening. Growth conditions for each strain are described in Supplementary Table S2.
S. Typhimurium was challenged with a determined concentration of SM as described in the primary screen.

The next experiment concerns S. Typhimurium. Type of experiment: cell-based, Salmonella enterica subsp. enterica serovar Typhimurium.
[5] abbreviates: antibiotic combined with SM3 at the concentration in the next cell.
Setting [6] is: antibiotic combined with SM4 at the concentration in the next cell.
Setting [7] is: antibiotic combined with SM5 at the concentration in the next cell.
Where [8] appears, read: antibiotic combined with SM1 at the concentration in the next cell.

Molecules are shown by their SMILES. Converted amounts (≈) assume the structure as drawn. Like-named read-outs stand apart in the source and are kept apart here.

As to `O=[N+]([O-])c1ccc(F)c(N=Cc2cc(Cl)cc(Cl)c2O)c1` [SM7], the MBC in [1] is recorded as 50 µM (≈ 16.5 µg/mL).
As for `CCn1cc(C(=O)O)c(=O)c2ccc(C)nc21` [Nalidixic acid], the MBC in experiment [2] (12 h) and in [2] was 16 µg/mL in each case. The “AB MBCcombined” value in [2] (setting [5]), in experiment [2] (setting [6]) and in [2] (setting [7]) was 16 µg/mL in each case. Further, the “Combination effect (FBC class)” value was “c (Indifferent (FBC > 1.0 and ≤2.0; reduction in MBCs inferior to 50% for both antibiotic and SM))” in [2] (antibiotic with SM1); “c (Indifferent (FBC > 1.0 and ≤2.0; reduction in MBCs inferior to 50% for both antibiotic and SM))” in experiment [2] (antibiotic with SM3); “c (Indifferent (FBC > 1.0 and ≤2.0; reduction in MBCs inferior to 50% for both antibiotic and SM))” in experiment [2] (antibiotic with SM4); “c (Indifferent (FBC > 1.0 and ≤2.0; reduction in MBCs inferior to 50% for both antibiotic and SM))” in experiment [2] (antibiotic with SM5).
On to `CC[C@H]1OC(=O)[C@H](C)[C@@H](O[C@H]2C[C@@](C)(OC)[C@@H](O)[C@H](C)O2)[C@H](C)[C@@H](O[C@@H]2O[C@H](C)C[C@H](N(C)C)[C@H]2O)[C@](C)(O)C[C@@H](C)C(=O)[C@H](C)[C@@H](O)[C@]1(C)O` [Erythromycin], for which, in [2] (12 h), the MBC came to 200 µg/mL. The “AB MBCcombined” value in experiment [2] (setting [8]), in experiment [2] (setting [5]), in experiment [2] (setting [6]) and in experiment [2] (setting [7]) was 200 µg/mL in each case. The “Combination effect (FBC class)” value in [2] (antibiotic with SM1) is “c (Indifferent (FBC > 1.0 and ≤2.0; reduction in MBCs inferior to 50% for both antibiotic and SM))”; in experiment [2] (antibiotic with SM3), “c (Indifferent (FBC > 1.0 and ≤2.0; reduction in MBCs inferior to 50% for both antibiotic and SM))”; in experiment [2] (antibiotic with SM4) it was “c (Indifferent (FBC > 1.0 and ≤2.0; reduction in MBCs inferior to 50% for both antibiotic and SM))”; in [2] (antibiotic with SM5) it was “c (Indifferent (FBC > 1.0 and ≤2.0; reduction in MBCs inferior to 50% for both antibiotic and SM))”.
With `COc1cccc(N=Cc2cc(Cl)cc(Cl)c2O)c1` [SM8], the MBC in [1] stood at 100 µM (≈ 29.6 µg/mL).
In the case of `CO/N=C(\C(=O)N[C@@H]1C(=O)N2C(C(=O)O)=C(COC(C)=O)CS[C@H]12)c1csc(N)n1` [Cefotaxime], the MBC in experiment [2] (12 h) worked out at 3.2 µg/mL. Further, the “AB MBCcombined” value in [2] (setting [8]), in experiment [2] (setting [5]), in experiment [2] (setting [6]) and in experiment [2] (setting [7]) was 3.2 µg/mL throughout. The “Combination effect (FBC class)” value in [2] (antibiotic with SM1) is “c (Indifferent (FBC > 1.0 and ≤2.0; reduction in MBCs inferior to 50% for both antibiotic and SM))”; in [2] (antibiotic with SM3), “c (Indifferent (FBC > 1.0 and ≤2.0; reduction in MBCs inferior to 50% for both antibiotic and SM))”; in [2] (antibiotic with SM4), “c (Indifferent (FBC > 1.0 and ≤2.0; reduction in MBCs inferior to 50% for both antibiotic and SM))”; in [2] (antibiotic with SM5), “c (Indifferent (FBC > 1.0 and ≤2.0; reduction in MBCs inferior to 50% for both antibiotic and SM))”.
As to `O=C(N[C@H](CO)[C@H](O)c1ccc([N+](=O)[O-])cc1)C(Cl)Cl` [chloramphenicol], the “Survival of infected larvae” value in experiment [3] (50 mg/kg) amounted to 100%; in [3] (50, 75, and 100 mg/kg, treated 2 hrs before infection) it was 100%. Also, the “Lowest concentration allowing 100% larva survival rate” value in [3] (infected larvae) worked out at 50 mg/kg.
Turning to `CN(CCO)CC(O)Cn1c2ccc(Br)cc2c2cc(Br)ccc21` (stereo not drawn) [SM2], the MBC in experiment [1] came to 100 µM (≈ 45.6 µg/mL); in [1] (Salmonella enterica), 100 µM (≈ 45.6 µg/mL); with Salmonella Enteritidis it was 200 µM (≈ 91.2 µg/mL); with Salmonella Heidelberg, 200 µM (≈ 91.2 µg/mL); against Salmonella Javiana it was 200 µM (≈ 91.2 µg/mL); against Salmonella Newport, 200 µM (≈ 91.2 µg/mL). Further, the MBC with Salmonella Saint-Paul is 200 µM (≈ 91.2 µg/mL); in experiment [4] (Salmonella, read-out: MBCs among the nine serotypes) it was 100 to 200 µM (≈ 45.6 to 91.2 µg/mL). Besides, the “Effect against the nine Salmonella serotypes” value in experiment [4] (200 µM, M9 broth) is reported as “cidal”. For the same compound, in the experiment on S. Typhimurium (M9 broth, 4X MBC), the “Concentration in which resistant bacteria were able to grow” value was 400 µM. In the experiment on S. Typhimurium (lethal dose (2X MBC) on solid medium or repeated exposure to sub-lethal dose (0.75X MBC) in liquid medium), the “Resistance development of S. Typhimurium” value was “developed resistance”.
Turning to `C[C@@H](O)[C@H]1C(=O)N2C(C(=O)O)=C(S[C@@H]3CN[C@H](C(=O)N(C)C)C3)[C@H](C)[C@H]12` [Meropenem], the MBC in experiment [2] (12 h) and in experiment [2] was 0.2 µg/mL throughout. In addition, the “AB MBCcombined” value in experiment [2] (setting [6]) and in [2] (setting [7]) was 0.2 µg/mL in each case. Besides, the “Combination effect (FBC class)” value in experiment [2] (antibiotic with SM1) was “b (Additive effect (FBC > 0.5 and ≤ 1.0; percentage reduction in MBCs between 50% and 75% for both antibiotic and SM))”; in [2] (antibiotic with SM3), “c (Indifferent (FBC > 1.0 and ≤2.0; reduction in MBCs inferior to 50% for both antibiotic and SM))”; in [2] (antibiotic with SM4), “c (Indifferent (FBC > 1.0 and ≤2.0; reduction in MBCs inferior to 50% for both antibiotic and SM))”; in experiment [2] (antibiotic with SM5), “c (Indifferent (FBC > 1.0 and ≤2.0; reduction in MBCs inferior to 50% for both antibiotic and SM))”.
